Experimental data from patent publication US12303474B2, “S-enantiomerically enriched compositions of beta blockers for treating amyotrophic lateral sclerosis” (priority 2013, dated 2025).
Like-named read-outs stand apart in the source and are kept apart here.

Assays:
[1] = tested on: G93A SOD1 B6SJL hybrid (G93A) model; details: for Heart / gastrocnemius: end of study;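 as to HR survival (FIG. 14): dosing began after ALS onset in G93A SOD1 mice, with survival as the endpoint, defined humanely as the animal failing to regain upright posture within 30 s when placed sideways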;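 as to HR survival (FIG. 16): dosing began after ALS onset in G93A SOD1 mice, with survival as the endpoint, defined humanely as the animal failing to regain upright posture within 30 s when placed sideways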
Procedure: (§1) Transgenic mice over-expressing a high copy number (25 copies) of mutated human SOD1 gene with a G93A point mutation, i.e., B6SJL-TgN [SOD1-G93A]1 Gur (G1H-G93A transgenic mice, JR2726; Hemizygote) (Gurney M E, et al., Science, 264, 1772-1775, 1994) (“G93A SOD1 B6SJL hybrid (G93A) model”), were used.
To study the effect of the test compounds on skeletal muscle atrophy, the skeletal muscle mass were determined at the end of the study.
The number of all mice in the population is indicated as “n” in at the bottom of FIGS. 21A-21C.
The number of all mice in the population is indicated as “n” in at the bottom of FIGS. 20D-20F.
The number of all mice in the population is indicated as “n” in at the bottom of FIGS. 21G-21I.

[2] = tested on: G93A SOD1 B6SJL hybrid (G93A) model; assay: Disease progression score (JAX SOP) in G93A SOD1 transgenic mice
Description: The disease progression score is based on the JAX SOP (Ludolph A C, Bendotti C, Blaugrund E, Hengerer B, Loffler J P, Martin J, Meininger V, Meyer T, Moussaoui S, Robberecht W, Scott S, Silani V, Van Den Berg L H (ENMC Group For The Establishment Of Guidelines For The Conduct Of Preclinical And Proof Of Concept Studies In ALS/MND Models). 2007, which is incorporated by reference).

[3] = tested on: G93A SOD1 B6SJL hybrid (G93A) model; details: for HR survival (FIG. 14): all mice; for HR survival (FIG. 16): female mice; for HR survival (FIG. 15): male mice;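 as to HR survival (FIG. 14): dosing began after ALS onset in G93A SOD1 mice, with survival as the endpoint, defined humanely as the animal failing to regain upright posture within 30 s when placed sideways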;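 as to HR survival (FIG. 16): dosing began after ALS onset in G93A SOD1 mice, with survival as the endpoint, defined humanely as the animal failing to regain upright posture within 30 s when placed sideways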
Description: To study the effect of S-oxprenolol on survival, survival was monitored over time.

[4] = tested on: G93A SOD1 B6SJL hybrid (G93A) model; assay: Body weight and body composition (lean mass, fat mass; NMR scans) in G93A SOD1 transgenic mice; type: in vivo; details: for Average Δ fat mass / Average Δ lean mass / Average Δ body weight: per day alive after disease onset
Description: as §1
[…] […] There were 16 mice in the S-oxprenolol group.
The primary endpoint was survival, humanely defined as the ability of the animal to right itself in 30 seconds after being laid on its side. Secondary endpoints were body weight, body composition, spontaneous activity and food intake. Body weight of the animals was assessed weekly until onset of disease. Additionally, body composition (fat mass and lean body mass) was assessed using NMR scans (EchoMRI-100, Echo Medical Systems, Houston, USA) every 4 days. After onset of disease, body weight and body composition were assessed every two days until the end of the study. All personal handling the animals was strictly blinded to the randomized treatment allocation.
To study the effect of S-oxprenolol on body weight, body weight was monitored over time.
To study the effect of the test compounds on lean body mass, lean mass was determined at the end of the study.
To study the effect of the test compounds on fat mass, the fat mass were determined at the end of the study.
To study the effect of S-oxprenolol on body weight, body weight was monitored over time. […] The number of all mice in the population is indicated as “n” in at the bottom of FIGS. 20A-20C.
To study the effect of the test compounds on lean body mass, lean mass was determined at the end of the study. […] The number of all mice in the population is indicated as “n” in at the bottom of FIGS. 20D-20F.
To study the effect of the test compounds on fat mass, the fat mass were determined at the end of the study. […] The number of all mice in the population is indicated as “n” in at the bottom of FIGS. 20G-20I.

[5] = 20 mg/kg/day vs. S-Oxprenolol (20)

C=CCOc1ccccc1OCC(O)CNC(C)C (racemic) [oxprenolol, 1-[2-(allyloxy)phenoxy]-3-(isopropylamino)propan-2-ol]
BAT (brown adipose tissue) ([1]; all mice, 20 mg/kg/d): 40.6 ± 2.8 mg
EDL (extensor digitorum longus) ([1]; all mice, 20 mg/kg/d): 7.24 ± 0.41 mg
soleus ([1]; all mice, 20 mg/kg/d): 4.99 ± 0.36 mg
Heart ([1]; all mice, 20 mg/kg/d): 100.2 ± 3.2 mg
gastrocnemius ([1]; all mice, 20 mg/kg/d): 52.2 ± 2.3 mg
BAT (brown adipose tissue) ([1]; female mice, 20 mg/kg/d): 35.2 ± 4.1 mg
EDL (extensor digitorum longus) ([1]; female mice, 20 mg/kg/d): 6.97 ± 0.36 mg
soleus ([1]; female mice, 20 mg/kg/d): 4.76 ± 0.52 mg
Heart ([1]; female mice, 20 mg/kg/d): 89.5 ± 2.4 mg
gastrocnemius ([1]; female mice, 20 mg/kg/d): 49.5 ± 2.1 mg
BAT (brown adipose tissue) ([1]; male mice, 20 mg/kg/d): 45.7 ± 3.6 mg
EDL (extensor digitorum longus) ([1]; male mice, 20 mg/kg/d): 7.49 ± 0.72 mg
soleus ([1]; male mice, 20 mg/kg/d): 5.21 ± 0.51 mg
Heart ([1]; male mice, 20 mg/kg/d): 110.2 ± 2.9 mg
gastrocnemius ([1]; male mice, 20 mg/kg/d): 54.7 ± 3.9 mg
HR Progression from score 1 to score 2 (FIG. 17) ([2]; 20 mg/kg/day vs. placebo): 0.60
HR Progression from score 1 to score 3 (FIG. 19) ([2]; 20 mg/kg/day vs. placebo): 0.60
HR Progression from score 2 to score 3 (FIG. 18) ([2]; 20 mg/kg/day vs. placebo): 0.77
HR survival (FIG. 14) ([3]; 20 mg/kg/day vs. placebo): 0.66
HR survival (FIG. 16) ([3]; 20 mg/kg/day vs. placebo): 1.03
HR survival (FIG. 15) ([3]; 20 mg/kg/day vs. placebo): 0.38
Δ body weight ([4]; all mice, 20 mg/kg/d): -5.59 ± 0.48 g
Δ fat mass ([4]; all mice, 20 mg/kg/d): -1.49 ± 0.12 g
Δ lean mass ([4]; all mice, 20 mg/kg/d): -4.67 ± 0.42 g
Average Δ fat mass ([4]; all mice, 20 mg/kg/d): -33.1 ± 2.6 mg/day
Average Δ lean mass ([4]; all mice, 20 mg/kg/d): -102.0 ± 10.7 mg/day
Δ body weight ([4]; female mice, 20 mg/kg/d): -5.27 ± 0.61 g
Δ fat mass ([4]; female mice, 20 mg/kg/d): -1.64 ± 0.21 g
Δ lean mass ([4]; female mice, 20 mg/kg/d): -3.76 ± 0.42 g
Average Δ body weight ([4]; female mice, 20 mg/kg/d): -122.5 ± 14.7 mg/day
Average Δ fat mass ([4]; female mice, 20 mg/kg/d): -37.5 ± 3.7 mg/day
Average Δ lean mass ([4]; female mice, 20 mg/kg/d): -85.8 ± 11.6 mg/day
Δ body weight ([4]; male mice, 20 mg/kg/d): -5.94 ± 0.77 g
Δ fat mass ([4]; male mice, 20 mg/kg/d): -1.33 ± 0.13 g
Δ lean mass ([4]; male mice, 20 mg/kg/d): -5.64 ± 0.68 g
Average Δ body weight ([4]; male mice, 20 mg/kg/d): -124.8 ± 20.7 mg/day
Average Δ fat mass ([4]; male mice, 20 mg/kg/d): -28.3 ± 3.1 mg/day
Average Δ lean mass ([4]; male mice, 20 mg/kg/d): -119.4 ± 17.7 mg/day

C=CCOc1ccccc1OC[C@H](O)CNC(C)C [R-oxprenolol, (R)-1-(2-(allyloxy)phenoxy)-3-(isopropylamino)propan-2-ol]
BAT (brown adipose tissue) ([1]; all mice, 10 mg/kg/d): 44.5 ± 3.4 mg
EDL (extensor digitorum longus) ([1]; all mice, 10 mg/kg/d): 6.53 ± 0.47 mg
soleus ([1]; all mice, 10 mg/kg/d): 4.49 ± 0.36 mg
Heart ([1]; all mice, 10 mg/kg/d): 101.2 ± 2.7 mg
gastrocnemius ([1]; all mice, 10 mg/kg/d): 50.8 ± 3.3 mg
BAT (brown adipose tissue) ([1]; all mice, 20 mg/kg/d): 43.3 ± 4.1 mg
EDL (extensor digitorum longus) ([1]; all mice, 20 mg/kg/d): 5.89 ± 0.31 mg
soleus ([1]; all mice, 20 mg/kg/d): 5.49 ± 0.34 mg
Heart ([1]; all mice, 20 mg/kg/d): 100.7 ± 3.8 mg
gastrocnemius ([1]; all mice, 20 mg/kg/d): 47.0 ± 2.6 mg
BAT (brown adipose tissue) ([1]; female mice, 10 mg/kg/d): 42.1 ± 4.6 mg
EDL (extensor digitorum longus) ([1]; female mice, 10 mg/kg/d): 6.45 ± 0.75 mg
soleus ([1]; female mice, 10 mg/kg/d): 4.23 ± 0.51 mg
Heart ([1]; female mice, 10 mg/kg/d): 94.4 ± 3.4 mg
gastrocnemius ([1]; female mice, 10 mg/kg/d): 47.5 ± 4.1 mg
BAT (brown adipose tissue) ([1]; female mice, 20 mg/kg/d): 32.6 ± 1.9 mg
EDL (extensor digitorum longus) ([1]; female mice, 20 mg/kg/d): 5.98 ± 0.47 mg
soleus ([1]; female mice, 20 mg/kg/d): 5.09 ± 0.52 mg
Heart ([1]; female mice, 20 mg/kg/d): 88.5 ± 4.6 mg
gastrocnemius ([1]; female mice, 20 mg/kg/d): 43.6 ± 4.2 mg
BAT (brown adipose tissue) ([1]; male mice, 10 mg/kg/d): 46.7 ± 4.9 mg
EDL (extensor digitorum longus) ([1]; male mice, 10 mg/kg/d): 6.59 ± 0.61 mg
soleus ([1]; male mice, 10 mg/kg/d): 4.74 ± 0.51 mg
Heart ([1]; male mice, 10 mg/kg/d): 107.4 ± 3.4 mg
gastrocnemius ([1]; male mice, 10 mg/kg/d): 53.8 ± 5.1 mg
BAT (brown adipose tissue) ([1]; male mice, 20 mg/kg/d): 53.9 ± 6.8 mg
EDL (extensor digitorum longus) ([1]; male mice, 20 mg/kg/d): 5.81 ± 0.42 mg
soleus ([1]; male mice, 20 mg/kg/d): 5.84 ± 0.45 mg
Heart ([1]; male mice, 20 mg/kg/d): 112.0 ± 4.1 mg
gastrocnemius ([1]; male mice, 20 mg/kg/d): 49.9 ± 3.0 mg
HR Progression from score 1 to score 2 (FIG. 17) ([2]; 10 mg/kg/day vs. placebo): 0.47
HR Progression from score 1 to score 3 (FIG. 19) ([2]; 10 mg/kg/day vs. placebo): 0.60
HR Progression from score 2 to score 3 (FIG. 18) ([2]; 10 mg/kg/day vs. placebo): 1.04
HR Progression from score 1 to score 2 (FIG. 17) ([2]; 20 mg/kg/day vs. placebo): 0.54
HR Progression from score 1 to score 3 (FIG. 19) ([2]; 20 mg/kg/day vs. placebo): 0.63
HR Progression from score 2 to score 3 (FIG. 18) ([2]; 20 mg/kg/day vs. placebo): 0.74
HR survival (FIG. 14) ([3]; 10 mg/kg/day vs. placebo): 0.57
HR survival (FIG. 14) [3, 5]: 1.32
HR survival (FIG. 14) ([3]; 20 mg/kg/day vs. placebo): 0.54
HR survival (FIG. 16) ([3]; 10 mg/kg/day vs. placebo): 0.60
HR survival (FIG. 16) [3, 5]: 1.26
HR survival (FIG. 16) ([3]; 20 mg/kg/day vs. placebo): 0.41
HR survival (FIG. 15) ([3]; 10 mg/kg/day vs. placebo): 0.49
HR survival (FIG. 15) [3, 5]: 1.24
HR survival (FIG. 15) ([3]; 20 mg/kg/day vs. placebo): 0.41
Δ body weight ([4]; all mice, 10 mg/kg/d): -6.36 ± 0.39 g
Δ fat mass ([4]; all mice, 10 mg/kg/d): -1.71 ± 0.15 g
Δ lean mass ([4]; all mice, 10 mg/kg/d): -5.11 ± 0.32 g
Average Δ body weight ([4]; all mice, 10 mg/kg/d): -146.1 ± 11.1 mg/day
Average Δ fat mass ([4]; all mice, 10 mg/kg/d): -38.3 ± 4.2 mg/day
Average Δ lean mass ([4]; all mice, 10 mg/kg/d): -125.8 ± -12.7 mg/day
Δ body weight ([4]; all mice, 20 mg/kg/d): -5.21 ± 0.39 g
Δ fat mass ([4]; all mice, 20 mg/kg/d): -1.59 ± 0.15 g
Δ lean mass ([4]; all mice, 20 mg/kg/d): -4.60 ± 0.28 g
Average Δ body weight ([4]; all mice, 20 mg/kg/d): -111.0 ± 9.4 mg/day
Average Δ fat mass ([4]; all mice, 20 mg/kg/d): -32.6 ± 3.0 mg/day
Average Δ lean mass ([4]; all mice, 20 mg/kg/d): -96.6 ± 6.4 mg/day
Δ body weight ([4]; female mice, 10 mg/kg/d): -6.19 ± 0.42 g
Δ fat mass ([4]; female mice, 10 mg/kg/d): -1.87 ± 0.22 g
Δ lean mass ([4]; female mice, 10 mg/kg/d): -3.76 ± 0.41 g
Average Δ body weight ([4]; female mice, 10 mg/kg/d): -137.4 ± 15.5 mg/day
Average Δ fat mass ([4]; female mice, 10 mg/kg/d): -41.4 ± 5.3 mg/day
Average Δ lean mass ([4]; female mice, 10 mg/kg/d): -121.3 ± 25.7 mg/day
Δ body weight ([4]; female mice, 20 mg/kg/d): -4.85 ± 0.55 g
Δ fat mass ([4]; female mice, 20 mg/kg/d): -1.71 ± 0.26 g
Δ lean mass ([4]; female mice, 20 mg/kg/d): -4.55 ± 0.37 g
Average Δ body weight ([4]; female mice, 20 mg/kg/d): -105.2 ± 13.1 mg/day
Average Δ fat mass ([4]; female mice, 20 mg/kg/d): -35.6 ± 5.0 mg/day
Average Δ lean mass ([4]; female mice, 20 mg/kg/d): -85.2 ± 9.1 mg/day
Δ body weight ([4]; male mice, 10 mg/kg/d): -6.515 ± 0.65 g
Δ fat mass ([4]; male mice, 10 mg/kg/d): -1.57 ± 0.21 g
Δ lean mass ([4]; male mice, 10 mg/kg/d): -5.55 ± 0.47 g
Average Δ body weight ([4]; male mice, 10 mg/kg/d): -153.5 ± 16.1 mg/day
Average Δ fat mass ([4]; male mice, 10 mg/kg/d): -37.4 ± 6.4 mg/day
Average Δ lean mass ([4]; male mice, 10 mg/kg/d): -129.7 ± 9.9 mg/day
Δ body weight ([4]; male mice, 20 mg/kg/d): -5.53 ± 0.57 g
Δ fat mass ([4]; male mice, 20 mg/kg/d): -1.48 ± 0.16 g
Δ lean mass ([4]; male mice, 20 mg/kg/d): -5.12 ± 0.38 g
Average Δ body weight ([4]; male mice, 20 mg/kg/d): -116.0 ± 13.7 mg/day
Average Δ fat mass ([4]; male mice, 20 mg/kg/d): -29.9 ± 3.5 mg/day
Average Δ lean mass ([4]; male mice, 20 mg/kg/d): -106.4 ± 8.5 mg/day
